The record followed here is US20140023611A1 (priority 2010, published 2014).

Bounds are passed on as bounds.

The assay addresses T1, rat NaP2b (SLC34A2) (Rattus norvegicus, UniProt Q9JJ09).
T1 construct: host or cells: HEK293
T1 sequence (Q9JJ09 1-695): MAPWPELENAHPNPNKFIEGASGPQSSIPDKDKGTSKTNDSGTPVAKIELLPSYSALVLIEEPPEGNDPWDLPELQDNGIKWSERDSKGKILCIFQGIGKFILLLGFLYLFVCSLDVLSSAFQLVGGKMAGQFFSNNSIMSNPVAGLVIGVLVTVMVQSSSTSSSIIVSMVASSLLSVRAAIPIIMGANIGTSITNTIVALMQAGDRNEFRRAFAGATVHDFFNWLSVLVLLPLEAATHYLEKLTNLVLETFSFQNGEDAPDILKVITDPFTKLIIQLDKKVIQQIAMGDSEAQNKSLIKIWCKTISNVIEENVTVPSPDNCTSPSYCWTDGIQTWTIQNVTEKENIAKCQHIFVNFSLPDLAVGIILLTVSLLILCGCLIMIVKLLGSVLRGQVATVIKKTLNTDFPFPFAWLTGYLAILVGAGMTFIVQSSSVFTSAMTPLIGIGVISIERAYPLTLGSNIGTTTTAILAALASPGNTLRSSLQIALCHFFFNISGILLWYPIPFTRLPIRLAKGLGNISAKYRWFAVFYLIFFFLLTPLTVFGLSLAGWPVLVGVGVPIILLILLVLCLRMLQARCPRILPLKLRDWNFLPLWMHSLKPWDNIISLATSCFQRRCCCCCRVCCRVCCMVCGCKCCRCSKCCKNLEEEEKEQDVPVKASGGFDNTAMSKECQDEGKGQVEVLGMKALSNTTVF
The assay can be described thus: Inhibition of NaP2b-mediated Pi (33P) uptake in transfected HEK293 cells, rat NaP2b. As to conditions: 33P Pi uptake, 0.1 mM phosphate, value given as pIC50 range. The format is cell-based. An outline of the steps: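 HEK293 cells were transiently transfected with NaP2b cDNA using Lipofectamine and grown near confluence. Compounds were tested at twelve concentrations from 0.1 nM to 30 uM in duplicate, and 33P-phosphate uptake was counted by scintillation after lysis. Results are expressed as pIC50.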
The term IC50 denotes the concentration that gives 50% inhibition. Higher therefore signals weaker potency in that assay. `CN1CCN(CCN(C)C(=O)c2cccc(C(=O)Nc3ccc(N4CCCCC4)cc3-c3cc(C(=O)NCc4cccc(C(F)(F)F)c4)ccn3)c2)CC1` [Example 82, N1-Methyl-N1-(2-(4-methylpiperazin-1-yl)ethyl)-N3-(4-(piperidin-1-yl)-2-(4-((3-(trifluoromethyl)benzyl)carbamoyl)pyridin-2-yl)phenyl)isophthalamide]: the IC50 is 1 to 7.94 µM.
Next, `CC(C)(C)c1ccc(CNC(=O)c2ccnc(-c3cc(N4CCCCC4)ccc3NC(=O)c3cccc(CSCCC(=O)O)c3)c2)cc1` [Example 1.3, 3-((3-((2-(4-((4-(Tert-butyl)benzyl)carbamoyl)pyridin-2-yl)-4-(piperidin-1-yl)phenyl)carbamoyl)benzyl)thio)propanoic acid]: 1 to 7.94 µM; `CCN(CC)c1ccc(NC(=O)c2cccc(CCCOCCOCCOCCOCCNS(=O)(=O)c3ccc(CCC(=O)O)cc3)c2)c(-c2cc(C(=O)N[C@H]3CCCc4ccccc43)ccn2)c1` [Example 320]: less than 1 µM; `Cc1cccc(CNC(=O)c2ccnc(-c3cc(N4CCCCC4)ccc3NC(=O)c3cccc(CSCCC(=O)O)c3)c2)c1` [Example 1.46]: 1 to 7.94 µM.
The compound `CCCN(C)c1ccc(NC(=O)c2cccc(C(=O)N(C)CCN3CCOCC3)c2)c(-c2cc(C(=O)NCc3cccc(C(F)(F)F)c3)ccn2)c1` [Example 129, N^1-methyl-N^3-(4-(methyl(propyl)amino)-2-(4-((3-(trifluoromethyl)benzyl)carbamoyl)pyridin-2-yl)phenyl)-N-(2-morpholinoethyl)isophthalamide] gave an IC50 of 1 to 7.94 µM.
Next, `O=C(NCc1cccc(C(F)(F)F)c1)c1ccnc(-c2cc(N3CCCCC3)ccc2NC(=O)c2cccc(CSCCS(=O)(=O)O)c2)c1` [Example 8.13]: 10 to 31.6 µM; `O=C(O)CCOCCOCCOCCOCCSCc1cccc(C(=O)Nc2ccc(N3CCCCC3)cc2-c2cc(C(=O)NCc3cccc(C(F)(F)F)c3)ccn2)c1` [Example 8.7]: 1 to 7.94 µM.
Under `O=C(O)CCSCc1cccc(C(=O)Nc2ccc(N3CCCCC3)cc2-c2cc(NC(=O)c3cccc(C(F)(F)F)c3)ccn2)c1` [Example 73, 3-((3-((4-(Piperidin-1-yl)-2-(4-(3-(trifluoromethyl)benzamido)pyridin-2-yl)phenyl)carbamoyl)benzyl)thio)propanoic acid] stands 10 to 31.6 µM.
In the case of `CCN(CC)c1ccc(NC(=O)c2cccc(CCCOCCOCCOCCOCCC(=O)N(C)CCOCCOCCOCCOCCOCCOCCOC)c2)c(-c2cc(C(=O)NCc3cccc(C(F)(F)F)c3)ccn2)c1` [Example 259, 2-(5-(diethylamino)-2-(3-(23-methyl-24-oxo-2,5,8,11,14,17,20,27,30,33,36-undecaoxa-23-azanonatriacontan-39-yl)benzamido)phenyl)-N-(3-(trifluoromethyl)benzyl)isonicotinamide], the IC50 was 1 to 7.94 µM.
Next, `CC(=O)NC(C(=O)O)C(C)(C)SCc1cccc(C(=O)Nc2ccc(N3CCCCC3)cc2-c2cc(C(=O)NCc3cccc(C(F)(F)F)c3)ccn2)c1` (stereo not drawn) [Example 8.11]: 10 to 31.6 µM; `Cc1cccc(CN(C)C(=O)c2ccnc(-c3cc(N4CCCCC4)ccc3NC(=O)c3cccc(CSCCC(=O)O)c3)c2)c1` [Example 1.38]: 10 to 31.6 µM.
`CC(=O)N1CCN(CCN(C)Cc2cccc(C(=O)Nc3ccc(N4CCCCC4)cc3-c3cc(C(=O)NCc4cccc(C(F)(F)F)c4)ccn3)n2)CC1` [Example 60, 6-(((2-(4-Acetylpiperazin-1-yl)ethyl)(methyl)amino)methyl)-N-(4-(piperidin-1-yl)-2-(4-((3-(trifluoromethyl)benzyl)carbamoyl)pyridin-2-yl)phenyl)picolinamide] showed an IC50 of 10 to 31.6 µM.
Next, `O=C(O)CCSCc1cccc(C(=O)Nc2ccc(N3CCCCC3)cc2-c2cc(C(=O)NCc3ccc(OCc4ccccc4)cc3)ccn2)c1` [Example 1.39]: 1 to 7.94 µM; `O=C(O)CCSCc1cccc(C(=O)Nc2ccc(N3CCCCC3)cc2-c2cc(C(O)c3cccc(C(F)(F)F)c3)ccn2)c1` (stereo not drawn) [Example 6.2, 3-((3-((2-(4-(Hydroxy(3-(trifluoromethyl)phenyl)methyl)pyridin-2-yl)-4-(piperidin-1-yl)phenyl)carbamoyl)benzyl)thio)propanoic acid]: 10 to 31.6 µM; `COCCNC(=O)c1cccc(SCc2cccc(C(=O)Nc3ccc(N4CCCCC4)cc3-c3cc(C(=O)NCc4cccc(C(F)(F)F)c4)ccn3)c2)c1` [Example 10.5]: 10 to 31.6 µM.
Regarding `O=C(O)CCSCc1cccc(C(=O)Nc2ccc(N3CCCCC3)cc2-c2cc(NCCc3cccc(C(F)(F)F)c3)ccn2)c1` [Example 70, 3-((3-((4-(Piperidin-1-yl)-2-(4-((3-(trifluoromethyl)phenethyl)amino)pyridin-2-yl)phenyl)carbamoyl)benzyl)thio)propanoic acid], the IC50 was 10 to 31.6 µM.
Under `CCN(CC)c1ccc(NC(=O)c2cccc(CCCOCCOCCOCCOCCC(=O)NCCOCCOCCOCCOCCOCCOCCOC)c2)c(-c2cc(C(=O)NCc3cccc(C(F)(F)F)c3)ccn2)c1` [Example 260, 2-(5-(diethylamino)-2-(3-(24-oxo-2,5,8,11,17,20,27,30,33,36-undecaoxa-23-azanonatriacontan-39-yl)benzamido)phenyl)-N-(3-(trifluoromethyl)benzyl)isonicotinamide] stands 1 to 7.94 µM.
Under `Cc1nc(SCc2cccc(C(=O)Nc3ccc(N4CCCCC4)cc3-c3cc(C(=O)NCc4cccc(C(F)(F)F)c4)ccn3)c2)sc1CC(=O)O` [Example 8.16] stands 1 to 7.94 µM; under `CN(CCN1CCN(S(C)(=O)=O)CC1)Cc1cccc(C(=O)Nc2ccc(N3CCCCC3)cc2-c2cc(C(=O)NCc3cccc(C(F)(F)F)c3)ccn2)n1` [Example 62, 6-((Methyl(2-(4-(methylsulfonyl)piperazin-1-yl)ethyl)amino)methyl)-N-(4-(piperidin-1-yl)-2-(4-((3-(trifluoromethyl)benzyl)carbamoyl)pyridin-2-yl)phenyl)picolinamide], 10 to 31.6 µM; under `Nc1ccccc1CNC(=O)c1ccnc(-c2cc(N3CCCCC3)ccc2NC(=O)c2cccc(CSCCC(=O)O)c2)c1` [Example 1.11], 10 to 31.6 µM.
`CN(CCN1CCOCC1)C(=O)c1cccc(C(=O)Nc2ccc(OC3CCCC3)cc2-c2cc(C(=O)N[C@H]3CCCc4ccccc43)ccn2)c1` [Example 133, (S)—N^1-(4-(cyclopentyloxy)-2-(4-((1,2,3,4-tetrahydronaphthalen-1-yl)carbamoyl)pyridin-2-yl)phenyl)-N^3-methyl-N^3-(2-morpholinoethyl)isophthalamide]: the IC50 is 1 to 7.94 µM.
Under `O=C(O)CNC(=O)Cc1cccc(SCc2cccc(C(=O)Nc3ccc(N4CCCCC4)cc3-c3cc(C(=O)NCc4cccc(C(F)(F)F)c4)ccn3)c2)c1` [Example 139] stands 10 to 31.6 µM; under `CC(C)(CCO)SCc1cccc(C(=O)Nc2ccc(N3CCCCC3)cc2-c2cc(C(=O)NCc3cccc(C(F)(F)F)c3)ccn2)c1` [Example 92], 1 to 7.94 µM; under `CN(CCN1CCOCC1)C(=O)Nc1cccc(C(=O)Nc2ccc(N3CCCCC3)cc2-c2cc(C(=O)N[C@H]3CCCc4ccccc43)ccn2)c1` [Example 245, (S)-2-(2-(3-(3-methyl-3-(2-morpholinoethyl)ureido)benzamido)-5-(piperidin-1-yl)phenyl)-N-(1,2,3,4-tetrahydronaphthalen-1-yl)isonicotinamide], 10 to 31.6 µM.
In the case of `CC(=O)N1CCCN(C(=O)CCOCCOCCOCCOCCSCc2cccc(C(=O)Nc3ccc(N4CCCCC4)cc3-c3cc(C(=O)NCc4cccc(C(F)(F)F)c4)ccn3)c2)CC1` [Example 153, 2-(2-(3-(17-(4-acetyl-1,4-diazepan-1-yl)-17-oxo-5,8,11,14-tetraoxa-2-thiaheptadecyl)benzamido)-5-(piperidin-1-yl)phenyl)-N-(3-(trifluoromethyl)benzyl)isonicotinamide], the IC50 was 10 to 31.6 µM.
The compound `O=C(O)CCSCc1cccc(C(=O)Nc2ccc(N3CCCCC3)cc2-c2cc(C(=O)NCc3cc(C(F)(F)F)ccc3F)ccn2)c1` [Example 1.30] showed an IC50 of 1 to 7.94 µM.
Under `O=C(O)CCSCc1cccc(C(=O)Nc2ccc(N3CCCCC3)cc2-c2cc(Oc3cccc(C(F)(F)F)c3)ccn2)c1` [Example 94] stands 10 to 31.6 µM; under `CCN(CC)c1ccc(NC(=O)c2cccc(C(=O)N(C)CCN(C)CCOCCOCCOCCNC(N)=O)c2)c(-c2cc(C(=O)N[C@H]3CCCc4ccccc43)ccn2)c1` [Example 224, (S)—N1-(1-amino-14-methyl-1-oxo-5,8,11-trioxa-2,14-diazahexadecan-16-yl)-N3-(4-(diethylamino)-2-(4-(1,2,3,4-tetrahydronaphthalen-1-ylcarbamoyl)pyridin-2-yl)phenyl)-N1-methylisophthalamide], 1 to 7.94 µM.
Under `O=C(O)CCSCc1cccc(C(=O)Nc2ccc(N3CCCCC3)cc2-c2cc(C(=O)NCc3cc(F)cc(C(F)(F)F)c3)ccn2)c1` [Example 1.29] stands 1 to 7.94 µM; under `O=C(O)CCSCc1cccc(C(=O)Nc2ccc(N3CCCCC3)cc2-c2cc(C(=O)NCc3cccc4ccccc34)ccn2)c1` [Example 1.12], 1 to 7.94 µM.
